Measurements taken from ChEMBL document CHEMBL5252581, “Using a Bioactive Eremophila-Derived Serrulatane Scaffold to Generate a Unique Carbamate Library for Anti-infective Evaluations” (J Nat Prod, 2023).

Columns and labels:
[1] = test system: Plasmodium falciparum; assay: Antimalarial activity against chloroquine sensitive Plasmodium falciparum 3D7 assessed as parasite growth inhibition at 80 uM incubated for 72 hrs by DAPI staining method; type: functional
[2] = test system: Plasmodium falciparum; assay: Antimalarial activity against multidrug resistant Plasmodium falciparum Dd2 assessed as parasite growth inhibition at 80 uM incubated for 72 hrs by DAPI staining method; type: functional
[3] = Cytotoxicity against HEK293 cells assessed as inhibition of cell growth at 80 uM incubated for 72 hrs by alamar blue dye based fluorescence assay relative to control; type: toxicity; conditions: human
[4] = test system: Haemonchus contortus; assay: Anthelmintic activity against third stage larvae of Haemonchus contortus assessed as reduction in larval motility measured at 168 hrs by microscope based analysis; type: functional, organism-based
[5] = test system: Haemonchus contortus; assay: Anthelmintic activity against third stage larvae of Haemonchus contortus assessed as reduction in larval motility at 50 uM measured at 168 hrs by microscope based analysis relative to control; type: functional; set-up: scale not given: the % may be the effect or the level left
[6] = test system: Haemonchus contortus; assay: Anthelmintic activity against Haemonchus contortus assessed as inhibition of L4 development at 50 uM measured at 168 hrs by microscope based analysis relative to control; type: functional
[7] = test system: Haemonchus contortus; assay: Anthelmintic activity against Haemonchus contortus assessed as induction of skinny phenotype at 50 uM measured at 168 hrs by microscope based analysis; type: functional
[8] = test system: Human immunodeficiency virus 1; assay: Reversal of HIV-1 latency infected in GFP-fused human J-Lat 10.6 cells assessed as inhibition of 160 nM PMA-induced HIV production at 100 ug/ml incubated for 24 hrs by flow cytometry analysis relative to control; type: functional; conditions: Human immunodeficiency virus 1, J-Lat 10.6
[9] = test system: Plasmodium falciparum; assay: Antimalarial activity against chloroquine sensitive Plasmodium falciparum 3D7 assessed as parasite growth inhibition incubated for 72 hrs by DAPI staining method; type: functional, organism-based; conditions: 3D7, 72 h
[10] = Resistance index, ratio of IC50 for antimalarial activity against multidrug resistant Plasmodium falciparum Dd2 to IC50 for antimalarial activity against chloroquine sensitive Plasmodium falciparum 3D7; type: toxicity
[11] = Selectivity index, ratio of IC50 for cytotoxicity against HEK293 cells to IC50 for antimalarial activity against chloroquine sensitive Plasmodium falciparum 3D7; type: toxicity, cell-based; conditions: human, read-out: Ratio IC50
[12] = Selectivity index, ratio of IC50 for cytotoxicity against HEK293 cells to IC50 for antimalarial activity against multidrug resistant Plasmodium falciparum Dd2; type: toxicity, cell-based; conditions: human, read-out: Ratio IC50
[13] = test system: Plasmodium falciparum; assay: Antimalarial activity against multidrug resistant Plasmodium falciparum Dd2 assessed as parasite growth inhibition incubated for 72 hrs by DAPI staining method; type: functional, organism-based; conditions: Dd2, 72 h
[14] = test system: Human immunodeficiency virus 1; assay: Reversal of HIV-1 latency infected in GFP-fused human J-Lat 10.6 cells assessed as inhibition of 160 nM PMA-induced HIV production incubated for 24 hrs by flow cytometry analysis; type: functional, organism-based; conditions: Human immunodeficiency virus 1, J-Lat 10.6, 24 h
[15] = Cytotoxicity against HEK293 cells assessed as inhibition of cell growth incubated for 72 hrs by alamar blue dye based fluorescence assay; type: toxicity; conditions: human

SMILES | inhibition at 80 µM [1] | inhibition at 80 µM [2] | inhibition at 72 h, 80 µM [3] | IC50 [4] | Activity [5] | inhibition at 50 µM [6] | Activity [7] | inhibition at 100 µg/mL [8] | IC50 [9] | Ratio IC50 [10] | selectivity ratio [11] | selectivity ratio [12] | IC50 [13] | EC50 [14] | IC50 at 72 h [15]
CC(C)=CCC[C@H](C)[C@H]1c2cc(C(=O)O)c(O)c(O)c2[C@H](C)C[C@H]1O | < 41% | < 41% | 8% | 3.6 µM | 16.9% | 4% | 0% | < 10% | – | – | – | – | – | – | –
COC(=O)c1cc2c(c(OC)c1OC)[C@H](C)C[C@@H](OC(=O)Nc1ccccc1)[C@H]2[C@@H](C)CCC=C(C)C | – | > 41% | 47% | > 50 µM | 9.6% | 4% | 0% | 29.3% | 11.6 µM | 1.1 | 6.9 | 6.3 | – | – | –
COC(=O)c1cc2c(c(OC)c1OC)[C@H](C)C[C@@H](OC(=O)Nc1ccc(C)cc1)[C@H]2[C@@H](C)CCC=C(C)C | – | – | 12% | 7.1 µM | 12.9% | 2.3% | 0% | 36.8% | 12.2 µM | 1.1 | 6.6 | 6.2 | 12.9 µM | – | –
COC(=O)c1cc2c(c(OC)c1OC)[C@H](C)C[C@@H](OC(=O)NCc1ccccc1)[C@H]2[C@@H](C)CCC=C(C)C | > 41% | > 41% | 24% | 0.4 µM | 44.7% | -4.4% | 0% | < 10% | – | – | – | – | – | – | –
COC(=O)c1cc2c(c(OC)c1OC)[C@H](C)C[C@@H](OC(=O)Nc1ccc(C#N)cc1)[C@H]2[C@@H](C)CCC=C(C)C | < 41% | < 41% | 2% | 9 µM | 6.8% | 12% | 1.7% | 59% | – | – | – | – | – | 96.7 µM | –
COC(=O)c1cc2c(c(OC)c1OC)[C@H](C)C[C@@H](OC(=O)NS(=O)(=O)c1ccc(C)cc1)[C@H]2[C@@H](C)CCC=C(C)C | > 41% | > 41% | 11% | 6.2 µM | 15.6% | 21.7% | 67.5% | 20.7% | – | – | – | – | – | – | –
COC(=O)c1cc2c(c(OC)c1OC)[C@H](C)C[C@@H](OC(=O)Nc1ccc(Cl)cc1)[C@H]2[C@@H](C)CCC=C(C)C | – | – | 3.1% | 1.8 µM | 26.4% | 2.5% | 0% | 31.7% | 11.7 µM | – | 6.9 | 6.1 | 13.2 µM | – | –
COC(=O)c1cc2c(c(OC)c1OC)[C@H](C)C[C@@H](OC(=O)Nc1ccc(F)cc1)[C@H]2[C@@H](C)CCC=C(C)C | – | – | 25% | 31.6 µM | 36.2% | 3.2% | 0% | 28.7% | 8.7 µM | 1.2 | 9.2 | 7.4 | 10.8 µM | – | –
COC(=O)c1cc2c(c(OC)c1OC)[C@H](C)C[C@@H](OC(=O)Nc1cccc(Cl)c1)[C@H]2[C@@H](C)CCC=C(C)C | – | – | 42% | 1.6 µM | 39.1% | 7.1% | 0% | 37.2% | 9.1 µM | 1 | 8.8 | 8.7 | 9.2 µM | – | –
COC(=O)c1cc2c(c(OC)c1OC)[C@H](C)C[C@@H](OC(=O)Nc1ccc(OC)cc1)[C@H]2[C@@H](C)CCC=C(C)C | – | – | 26% | > 50 µM | 18.3% | 2% | 0% | 22.9% | 9.3 µM | 1.1 | 8.6 | 7.9 | 10.1 µM | – | –
COC(=O)c1cc2c(c(OC)c1OC)[C@H](C)C[C@@H](OC(=O)Nc1cc(C(F)(F)F)cc(C(F)(F)F)c1)[C@H]2[C@@H](C)CCC=C(C)C | – | – | 34% | 0.8 µM | 16.9% | 3.6% | 0% | 39.1% | 4.6 µM | 2.5 | 17.5 | 6.9 | 11.6 µM | – | –
COC(=O)c1cc2c(c(OC)c1OC)[C@H](C)C[C@@H](OC(=O)Nc1ccc([N+](=O)[O-])cc1)[C@H]2[C@@H](C)CCC=C(C)C | – | – | 52% | 6.4 µM | 30.4% | 4.8% | 60% | 43.5% | 7.6 µM | 1.3 | 5 | 7.5 | 10.6 µM | – | –
C[C@H]1[C@@H](O)O[C@@H]2O[C@@]3(C)CC[C@H]4[C@H](C)CC[C@@H]1[C@@]24OO3 [ARTENIMOL] | – | – | – | – | – | – | – | – | – | 2.2 | > 6680 | > 3080 | – | – | > 4 µM
CCN(CC)CCCC(C)Nc1ccnc2cc(Cl)ccc12 (configuration not stated) [CHLOROQUINE] | – | – | – | – | – | – | – | – | – | – | – | – | – | – | > 10 µM
C[C@](C#N)(COc1cc(C#N)ccc1C(F)(F)F)NC(=O)c1ccc(SC(F)(F)F)cc1 [MONEPANTEL] | – | – | – | 0.2 µM | 99.2% | 98% | 0% | – | – | – | – | – | – | – | –
CO/N=C1\C[C@]2(C[C@@H]3C[C@@H](C/C=C(\C)C[C@@H](C)/C=C/C=C4\CO[C@@H]5[C@H](O)C(C)=C[C@@H](C(=O)O3)[C@]45O)O2)O[C@H](/C(C)=C/C(C)C)[C@H]1C [MOXIDECTIN] | – | – | – | 3 µM | 88.2% | 89.7% | 0% | – | – | – | – | – | – | – | –
COc1ccc(C[C@H](N)C(=O)N[C@H]2[C@@H](O)[C@H](n3cnc4c(N(C)C)ncnc43)O[C@@H]2CO)cc1 [PUROMYCIN] | – | – | – | – | – | – | – | – | 0.0429 µM | 1.9 | 15.5 | 8.2 | 0.0814 µM | – | 0.664 µM
CCc1nc(N)nc(N)c1-c1ccc(Cl)cc1 [PYRIMETHAMINE] | – | – | – | – | – | – | – | – | – | > 1010 | > 1010 | – | – | – | > 10 µM
